Measured values reported in publication PMC4114195, “Identification of a cyclic-di-GMP-modulating response regulator that impacts biofilm formation in a model sulfate reducing bacterium” (Frontiers in Microbiology, 2014).

Experiments:
Format in all cases: biochemical
DVU0408 [1] = biological target: T1, DVU0408 (Nitratidesulfovibrio vulgaris, UniProt Q72F10); assay: HPLC, c-di-GMP hydrolysis with added GTP; details: 100 μM GTP, 100 μM c-di-GMP, 2 mM MnCl2; proposed allosteric at inactive GGDEF domain
T1 construct: gene DVU_0408; full length (gene 2148 bp, about 715 residues), GGDEF-EAL response regulator; E. coli
T1 sequence (Q72F10 1-715): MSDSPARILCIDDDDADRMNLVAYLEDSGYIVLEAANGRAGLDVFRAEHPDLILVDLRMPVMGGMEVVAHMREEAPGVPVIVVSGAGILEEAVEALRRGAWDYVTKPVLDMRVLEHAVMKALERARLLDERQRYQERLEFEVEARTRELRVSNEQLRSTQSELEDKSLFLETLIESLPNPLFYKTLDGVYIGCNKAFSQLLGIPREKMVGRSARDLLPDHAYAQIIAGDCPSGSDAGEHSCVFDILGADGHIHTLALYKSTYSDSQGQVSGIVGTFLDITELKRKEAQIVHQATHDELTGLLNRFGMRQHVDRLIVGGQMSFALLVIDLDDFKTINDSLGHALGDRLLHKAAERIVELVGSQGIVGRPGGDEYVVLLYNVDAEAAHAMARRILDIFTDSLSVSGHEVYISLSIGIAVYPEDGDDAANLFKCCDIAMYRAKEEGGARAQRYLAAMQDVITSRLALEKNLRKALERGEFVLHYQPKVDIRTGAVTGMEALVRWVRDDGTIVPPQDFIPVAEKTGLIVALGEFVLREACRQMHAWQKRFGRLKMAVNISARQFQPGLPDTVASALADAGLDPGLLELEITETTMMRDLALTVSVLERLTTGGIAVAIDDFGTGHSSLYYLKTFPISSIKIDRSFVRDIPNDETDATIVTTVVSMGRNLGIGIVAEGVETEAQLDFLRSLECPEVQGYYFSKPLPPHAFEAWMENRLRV

DVU0330 HD domain = biological target: T2, DVU0330 HD domain (Nitratidesulfovibrio vulgaris, UniProt Q72F84); assay: absorbance at […] nm, phosphodiesterase assay; details: 5 mM bis-pNPP, 1 or 10 mM MnCl2, pH 8.0
T2 construct: gene DVU_0330; isolated HD (HDOD, no GYP motif) domain 230-412; N-terminal 8xHis-Strep II-MBP tag cut by TEV; E. coli
T2 sequence (Q72F84 230-412): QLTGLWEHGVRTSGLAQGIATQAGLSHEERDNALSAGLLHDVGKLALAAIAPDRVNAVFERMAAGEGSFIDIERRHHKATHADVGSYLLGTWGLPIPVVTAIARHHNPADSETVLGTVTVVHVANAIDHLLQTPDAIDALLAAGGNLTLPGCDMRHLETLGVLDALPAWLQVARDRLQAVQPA

DVU1181 HD-GYP domain = biological target: T3, DVU1181 HD-GYP domain (Nitratidesulfovibrio vulgaris, UniProt Q72CV2); assay: absorbance at […] nm, phosphodiesterase assay; details: 5 mM bis-pNPP, 1 or 10 mM MnCl2, pH 8.0
T3 construct: gene DVU_1181; isolated HD-GYP domain 176-356; N-terminal 8xHis-Strep II-MBP tag cut by TEV; E. coli
T3 sequence (Q72CV2 176-356): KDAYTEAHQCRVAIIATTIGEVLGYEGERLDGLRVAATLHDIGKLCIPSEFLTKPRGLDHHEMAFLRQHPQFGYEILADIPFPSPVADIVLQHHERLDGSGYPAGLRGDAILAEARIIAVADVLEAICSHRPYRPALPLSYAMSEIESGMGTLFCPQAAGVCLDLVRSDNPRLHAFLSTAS

DVU2933 HD-GYP domain = biological target: T4, DVU2933 HD-GYP domain (Nitratidesulfovibrio vulgaris, UniProt Q727C2); assay: HILIC-TOF MS, c-di-GMP hydrolysis; details: 100 μM c-di-GMP, 10 mM MnCl2, pH 8.0, room temperature, 24 h
T4 construct: gene DVU_2933; isolated HD-GYP domain 282-458; N-terminal 6xHis tag cut by TEV; E. coli
T4 sequence (Q727C2 282-458): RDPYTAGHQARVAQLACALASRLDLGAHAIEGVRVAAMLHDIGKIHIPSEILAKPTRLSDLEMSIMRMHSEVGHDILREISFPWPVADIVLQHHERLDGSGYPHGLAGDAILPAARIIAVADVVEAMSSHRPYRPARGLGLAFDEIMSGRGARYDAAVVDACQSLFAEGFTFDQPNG

DVU0722 HD-GYP domain = biological target: T5, DVU0722 HD-GYP domain (Nitratidesulfovibrio vulgaris, UniProt Q72E57); assay: HILIC-TOF MS, c-di-GMP hydrolysis; details: 100 μM c-di-GMP, 10 mM MnCl2, pH 8.0, room temperature, 24 h
T5 construct: gene DVU_0722; isolated HD-GYP domain 336-518; N-terminal 8xHis-Strep II-MBP tag cut by TEV; E. coli
T5 sequence (Q72E57 336-518): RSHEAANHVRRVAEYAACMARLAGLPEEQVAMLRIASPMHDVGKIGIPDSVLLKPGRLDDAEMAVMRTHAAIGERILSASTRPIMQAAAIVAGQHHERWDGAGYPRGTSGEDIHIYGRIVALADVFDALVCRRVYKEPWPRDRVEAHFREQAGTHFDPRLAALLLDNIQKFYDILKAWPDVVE

DVU0408 [2] = biological target: T1, DVU0408; assay: HPLC, phosphodiesterase assay, pGpG formed; details: 100 μM c-di-GMP, 2 mM MnCl2
DVUA0086 HD-GYP domain = biological target: T6, DVUA0086 HD-GYP domain (Nitratidesulfovibrio vulgaris, UniProt Q72WK3); assay: HILIC-TOF MS, c-di-GMP hydrolysis; details: 100 μM c-di-GMP, 10 mM MnCl2, pH 8.0, room temperature, 24 h
T6 construct: isolated HD-GYP domain 164-363; N-terminal 6xHis tag cut by TEV; E. coli; gene on native plasmid pDV1
T6 sequence (Q72WK3 164-363): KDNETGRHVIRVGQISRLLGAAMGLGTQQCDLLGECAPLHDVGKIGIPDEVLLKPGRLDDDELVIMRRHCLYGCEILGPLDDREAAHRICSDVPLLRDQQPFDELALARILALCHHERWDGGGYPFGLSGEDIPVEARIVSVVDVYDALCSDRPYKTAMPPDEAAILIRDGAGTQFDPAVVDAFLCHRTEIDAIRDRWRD

## Nc1nc2c(ncn2[C@@H]2O[C@H](COP(=O)(O)OP(=O)(O)OP(=O)(O)O)[C@@H](O)[C@H]2O)c(=O)[nH]1 [GTP]
DVU0408 [1]
  HPLC, c-di-GMP hydrolysis with added GTP: There was an increase in the pGpG peak upon addition of GTP.

## O=[N+]([O-])c1ccc(OP(=O)(O)Oc2ccc([N+](=O)[O-])cc2)cc1 [bis-pNPP]
DVU0330 HD domain
  absorbance at 410 nm, phosphodiesterase assay: DVU0330 that lacks the GYP motif showed very low activity
DVU1181 HD-GYP domain
  absorbance at 410 nm, phosphodiesterase assay: DVU0722 and DVU1181 showed slower activity

## Nc1nc2c(ncn2[C@@H]2O[C@@H]3COP(=O)(O)O[C@H]4[C@@H](O)[C@H](n5cnc6c(=O)[nH]c(N)nc65)O[C@@H]4COP(=O)(O)O[C@H]3[C@H]2O)c(=O)[nH]1 [c-di-GMP]
DVU2933 HD-GYP domain
  HILIC-TOF MS, c-di-GMP hydrolysis: DVU2933 protein had lower activity, but again pGpG was the main product formed.
DVU0722 HD-GYP domain
  HILIC-TOF MS, c-di-GMP hydrolysis: DVU0722 protein also hydrolyzed most of the c-di-GMP to pGpG.
DVU0408 [2]
  HPLC, phosphodiesterase assay, pGpG formed: it did have PDE activity against c-di-GMP
DVUA0086 HD-GYP domain
  HILIC-TOF MS, c-di-GMP hydrolysis: DVUA0086 protein had maximum activity and completely hydrolyzed c-di-GMP
